Assay results from ChEMBL document CHEMBL5728460, “Pyrimidine compounds and pyrimido indole compounds and methods of use” (2021).

Key:
Dihydrofolate reductase = biological target: T1, Dihydrofolate reductase (Homo sapiens, UniProt P00374); test: TBD: TBD
T1 sequence (P00374 whole entry): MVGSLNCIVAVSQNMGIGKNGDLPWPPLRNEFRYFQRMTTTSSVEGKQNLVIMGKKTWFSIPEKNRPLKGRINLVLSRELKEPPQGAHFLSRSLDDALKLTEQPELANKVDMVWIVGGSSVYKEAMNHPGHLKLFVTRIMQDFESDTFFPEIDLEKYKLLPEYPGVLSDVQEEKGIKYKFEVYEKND

[1] = biological target: Epidermal growth factor receptor (Homo sapiens, UniProt P00533); test: TBD: TBD
Epidermal growth factor receptor, sequence (P00533 whole entry): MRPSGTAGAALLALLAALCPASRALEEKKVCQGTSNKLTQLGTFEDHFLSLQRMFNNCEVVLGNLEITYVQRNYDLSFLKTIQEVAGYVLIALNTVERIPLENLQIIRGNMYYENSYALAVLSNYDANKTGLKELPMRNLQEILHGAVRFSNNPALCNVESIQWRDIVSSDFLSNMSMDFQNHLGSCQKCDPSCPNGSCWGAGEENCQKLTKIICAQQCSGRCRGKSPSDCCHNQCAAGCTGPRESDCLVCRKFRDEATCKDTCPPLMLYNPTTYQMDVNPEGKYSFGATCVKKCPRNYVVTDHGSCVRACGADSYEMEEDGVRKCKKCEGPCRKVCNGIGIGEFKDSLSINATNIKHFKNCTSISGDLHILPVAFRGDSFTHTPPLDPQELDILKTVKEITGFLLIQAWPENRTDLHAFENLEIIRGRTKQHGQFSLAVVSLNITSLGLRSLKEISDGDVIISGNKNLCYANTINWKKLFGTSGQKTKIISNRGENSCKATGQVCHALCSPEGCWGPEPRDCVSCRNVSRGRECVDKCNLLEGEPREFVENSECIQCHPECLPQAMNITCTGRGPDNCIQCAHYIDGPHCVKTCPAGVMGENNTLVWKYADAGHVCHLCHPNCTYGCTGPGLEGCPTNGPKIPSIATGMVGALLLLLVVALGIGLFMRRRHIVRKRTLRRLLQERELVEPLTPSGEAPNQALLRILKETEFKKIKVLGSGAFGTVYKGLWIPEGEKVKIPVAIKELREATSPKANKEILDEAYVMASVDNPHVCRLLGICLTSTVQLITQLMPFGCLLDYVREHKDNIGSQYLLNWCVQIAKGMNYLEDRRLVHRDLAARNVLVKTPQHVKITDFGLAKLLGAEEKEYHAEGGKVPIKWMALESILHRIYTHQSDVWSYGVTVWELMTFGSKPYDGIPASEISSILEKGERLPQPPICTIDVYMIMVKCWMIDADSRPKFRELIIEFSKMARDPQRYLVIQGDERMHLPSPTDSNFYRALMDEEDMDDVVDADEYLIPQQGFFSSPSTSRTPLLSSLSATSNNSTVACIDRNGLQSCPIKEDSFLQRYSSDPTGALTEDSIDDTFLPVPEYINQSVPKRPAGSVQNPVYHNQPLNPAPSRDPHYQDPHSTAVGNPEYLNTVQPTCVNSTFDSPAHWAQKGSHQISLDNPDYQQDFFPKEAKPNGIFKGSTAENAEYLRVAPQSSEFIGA

[2] = biological target: Platelet-derived growth factor receptor beta (Homo sapiens, UniProt P09619); test: TBD: TBD
Platelet-derived growth factor receptor beta, sequence (P09619 whole entry): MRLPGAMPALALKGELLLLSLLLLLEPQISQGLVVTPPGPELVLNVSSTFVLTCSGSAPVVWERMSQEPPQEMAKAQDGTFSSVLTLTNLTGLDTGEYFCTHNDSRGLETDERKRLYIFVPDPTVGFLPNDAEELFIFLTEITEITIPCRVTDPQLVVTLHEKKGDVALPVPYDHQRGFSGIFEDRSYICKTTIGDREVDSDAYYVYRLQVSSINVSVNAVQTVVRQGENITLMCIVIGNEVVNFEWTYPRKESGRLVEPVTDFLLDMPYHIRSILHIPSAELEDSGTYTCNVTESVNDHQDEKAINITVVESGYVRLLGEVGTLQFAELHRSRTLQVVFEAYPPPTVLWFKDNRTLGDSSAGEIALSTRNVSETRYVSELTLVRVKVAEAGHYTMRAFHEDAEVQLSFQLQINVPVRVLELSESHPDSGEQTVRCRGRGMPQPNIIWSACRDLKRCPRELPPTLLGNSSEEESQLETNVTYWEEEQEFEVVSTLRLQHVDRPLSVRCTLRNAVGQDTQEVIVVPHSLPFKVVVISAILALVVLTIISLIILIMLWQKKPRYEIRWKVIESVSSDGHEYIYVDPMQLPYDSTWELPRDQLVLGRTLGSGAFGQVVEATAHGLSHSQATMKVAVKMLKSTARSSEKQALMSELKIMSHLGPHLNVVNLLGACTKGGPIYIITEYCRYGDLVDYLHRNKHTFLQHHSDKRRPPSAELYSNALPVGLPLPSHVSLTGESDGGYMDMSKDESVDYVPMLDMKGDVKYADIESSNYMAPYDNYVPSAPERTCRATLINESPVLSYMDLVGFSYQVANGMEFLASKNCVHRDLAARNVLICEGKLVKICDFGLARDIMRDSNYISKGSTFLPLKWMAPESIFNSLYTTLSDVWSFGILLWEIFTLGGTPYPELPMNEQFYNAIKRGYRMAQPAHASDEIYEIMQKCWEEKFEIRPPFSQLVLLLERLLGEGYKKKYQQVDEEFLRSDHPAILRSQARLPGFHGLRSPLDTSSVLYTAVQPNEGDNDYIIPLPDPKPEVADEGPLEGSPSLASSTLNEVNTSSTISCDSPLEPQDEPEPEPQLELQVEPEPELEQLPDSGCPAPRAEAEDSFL

[3] = biological target: Vascular endothelial growth factor receptor 1 (Homo sapiens, UniProt P17948); test: TBD: TBD
Vascular endothelial growth factor receptor 1, sequence (P17948 whole entry): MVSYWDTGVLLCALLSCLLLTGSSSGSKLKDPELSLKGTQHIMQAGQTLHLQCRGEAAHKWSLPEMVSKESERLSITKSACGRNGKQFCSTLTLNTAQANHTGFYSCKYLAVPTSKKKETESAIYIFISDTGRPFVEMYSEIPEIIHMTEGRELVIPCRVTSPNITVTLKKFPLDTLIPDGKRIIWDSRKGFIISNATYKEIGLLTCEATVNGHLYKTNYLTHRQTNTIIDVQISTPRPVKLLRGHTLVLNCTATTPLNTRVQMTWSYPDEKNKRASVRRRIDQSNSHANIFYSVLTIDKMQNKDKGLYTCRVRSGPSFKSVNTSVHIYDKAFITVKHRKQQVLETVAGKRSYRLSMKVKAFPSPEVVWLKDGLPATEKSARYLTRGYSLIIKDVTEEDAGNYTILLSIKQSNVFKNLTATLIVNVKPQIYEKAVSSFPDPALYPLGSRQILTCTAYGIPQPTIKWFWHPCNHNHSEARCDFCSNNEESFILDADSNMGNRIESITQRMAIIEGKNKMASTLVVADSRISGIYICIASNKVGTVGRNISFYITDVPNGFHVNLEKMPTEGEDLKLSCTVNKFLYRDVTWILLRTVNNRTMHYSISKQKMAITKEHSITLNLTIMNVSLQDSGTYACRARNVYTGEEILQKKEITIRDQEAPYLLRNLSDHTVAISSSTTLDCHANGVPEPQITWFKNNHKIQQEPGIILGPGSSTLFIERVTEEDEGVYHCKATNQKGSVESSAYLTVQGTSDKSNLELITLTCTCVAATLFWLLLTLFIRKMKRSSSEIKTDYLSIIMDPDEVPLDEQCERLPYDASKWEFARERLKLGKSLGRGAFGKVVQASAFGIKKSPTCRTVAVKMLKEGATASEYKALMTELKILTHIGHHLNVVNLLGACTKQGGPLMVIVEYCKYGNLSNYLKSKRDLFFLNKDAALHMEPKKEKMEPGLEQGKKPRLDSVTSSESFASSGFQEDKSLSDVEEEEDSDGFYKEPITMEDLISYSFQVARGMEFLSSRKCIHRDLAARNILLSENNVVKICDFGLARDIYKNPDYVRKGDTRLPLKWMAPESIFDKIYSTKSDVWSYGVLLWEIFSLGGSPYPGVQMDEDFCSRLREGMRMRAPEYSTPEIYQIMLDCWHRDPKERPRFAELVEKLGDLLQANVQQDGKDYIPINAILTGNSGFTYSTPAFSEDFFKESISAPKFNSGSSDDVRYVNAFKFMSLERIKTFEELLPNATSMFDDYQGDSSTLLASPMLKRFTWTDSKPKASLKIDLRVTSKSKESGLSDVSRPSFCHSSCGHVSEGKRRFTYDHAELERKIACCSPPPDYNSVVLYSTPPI

[4] = biological target: Vascular endothelial growth factor receptor 2 (Homo sapiens, UniProt P35968); test: TBD: TBD
Vascular endothelial growth factor receptor 2, sequence (P35968 whole entry): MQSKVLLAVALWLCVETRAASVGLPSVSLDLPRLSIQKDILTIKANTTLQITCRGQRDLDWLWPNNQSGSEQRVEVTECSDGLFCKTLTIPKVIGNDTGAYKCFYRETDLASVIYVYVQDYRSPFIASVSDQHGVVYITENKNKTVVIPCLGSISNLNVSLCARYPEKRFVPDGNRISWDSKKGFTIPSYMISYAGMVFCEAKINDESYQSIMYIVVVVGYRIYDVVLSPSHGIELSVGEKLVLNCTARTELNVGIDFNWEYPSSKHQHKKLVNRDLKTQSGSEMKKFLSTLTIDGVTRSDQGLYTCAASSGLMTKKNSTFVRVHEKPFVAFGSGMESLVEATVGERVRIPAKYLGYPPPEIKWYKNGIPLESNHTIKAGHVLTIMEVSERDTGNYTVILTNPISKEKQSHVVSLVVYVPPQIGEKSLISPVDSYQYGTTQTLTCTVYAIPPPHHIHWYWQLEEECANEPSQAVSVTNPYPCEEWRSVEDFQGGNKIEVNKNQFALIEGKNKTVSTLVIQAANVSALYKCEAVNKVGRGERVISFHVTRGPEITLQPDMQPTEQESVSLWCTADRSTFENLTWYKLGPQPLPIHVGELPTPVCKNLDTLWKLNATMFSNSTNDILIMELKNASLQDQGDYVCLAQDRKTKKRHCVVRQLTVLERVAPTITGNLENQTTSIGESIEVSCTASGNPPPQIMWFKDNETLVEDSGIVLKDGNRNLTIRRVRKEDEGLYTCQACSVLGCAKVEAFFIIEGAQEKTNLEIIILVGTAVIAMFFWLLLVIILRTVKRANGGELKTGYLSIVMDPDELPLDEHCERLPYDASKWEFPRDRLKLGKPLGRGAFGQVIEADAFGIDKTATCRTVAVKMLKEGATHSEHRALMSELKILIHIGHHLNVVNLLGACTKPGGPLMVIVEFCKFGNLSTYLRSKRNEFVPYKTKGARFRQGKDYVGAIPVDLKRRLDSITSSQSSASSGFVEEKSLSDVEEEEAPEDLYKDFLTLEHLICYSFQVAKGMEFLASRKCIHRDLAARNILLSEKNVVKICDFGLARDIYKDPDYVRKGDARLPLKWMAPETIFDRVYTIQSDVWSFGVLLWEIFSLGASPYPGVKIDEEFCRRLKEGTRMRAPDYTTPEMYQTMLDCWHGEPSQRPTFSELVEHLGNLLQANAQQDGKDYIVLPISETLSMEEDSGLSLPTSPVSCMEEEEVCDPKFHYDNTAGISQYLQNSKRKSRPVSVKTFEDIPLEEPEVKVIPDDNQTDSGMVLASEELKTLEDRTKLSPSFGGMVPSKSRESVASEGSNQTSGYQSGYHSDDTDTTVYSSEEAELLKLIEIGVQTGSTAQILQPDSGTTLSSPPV

[5] = TBD: TBD

Compound | IC50 (Dihydrofolate reductase) | IC50 [1] | IC50 [5] | other results
COc1ccccc1Sc1sc2nc(N)nc(N)c2c1C |  | 10.4 µM |  | IC50 [2]: 40.3 µM; IC50 [3]: 160 µM; IC50 [4]: 56.3 µM
COc1cc(C[C@H]2NCCc3cc(O)c(O)cc32)cc(OC)c1OC |  |  | 0.0021 µM | 
COc1ccc(Sc2sc3nc(N)nc(N)c3c2C)cc1 | 1.41 µM |  |  | 

Further lines, with some results ahead:

IC50 (Dihydrofolate reductase) | IC50 [1] | Compound | IC50 [5] | other results
1.1 µM |  | COc1ccc(Sc2c(C)c3c(N)nc(N)nc3n2C)cc1OC |  | 
0.91 µM | 15.1 µM | COc1ccc(Sc2sc3nc(N)nc(N)c3c2C)cc1OC | 3.9 µM | 
